Tests used:
[1] = test system: RAW264.7 mouse macrophage cell line; assay: MTT assay cytotoxicity; type: cell-based; conditions: RAW264.7, 24 hours
Description: (§1) HaCaT human epidermal keratinocytes, # ATCC PCS-200-011) were incubated using Dulbecco's modified Eagle's medium (DMEM, # DMEM-HPA, Capricorn Scientific, Ebsdorfergrund, Germany) in the conditions of 37° C. and 5% CO2. NIH3T3 mouse embryo fibroblasts (# KCLB 21658), RAW264.7 murine macrophages (preosteoclast cell line, # KCLB 40071), HCT116 human colon cancer cells (# KCLB 10247), PC3 human prostate adenocarcinoma cells (# KCLB 21435), HT1080 human fibrosarcoma cells (# KCLB 1121), and B16F10 mouse malignant melanoma cells (# KCLB 80008) were purchased from the Korean Cell Line Bank, and incubated using DMEM in the conditions of 37° C. and 5% C02.
(§2) The compound isolated from Osmunda japonica, prepared in section 1 of <Example 1>, was investigated for cytotoxicity using MTT assay.
(§3) MTT assay was as follows.
(§4) Cells were incubated at 1×10^3 cells/well in a 96-well plate containing DMEM with 10% fetal bovine serum (FBS) at 5% CO2 and 37° C., and then osmundacetone was added to the cell medium, followed by incubation for 24 hours. Thereafter, 100 μL of MTT (0.5 mg/ml PBS) was administered, followed by incubation for 2 hours. Thereafter, the medium was removed from each well, and 100 μL of DMSO was added. After incubation for 10 minutes, the absorbance was measured using a microplate reader (SPCTRA MAX 340PC, Molecular Devices, USA) at 570 nm. The absorbance is an indicator showing the number of living cells, and calculated by the following equation. The reproducibility thereof was validated by three experiments.
(§5) Cell proliferation (%)=OD550(sample)/OD550(control)

[2] = test system: HaCaT human epidermal keratinocytes; assay: MTT assay cytotoxicity; type: cell-based; conditions: 24 hours, read-out: IC50 according to MTT assay
Description: as §1, §2, §3, §4, §5

[3] = test system: PC3 human prostate adenocarcinoma; assay: MTT assay cytotoxicity; type: cell-based; conditions: PC3, 24 hours
Description: as §1, §2, §3, §4, §5

[4] = test system: osteoclasts co-incubated with MC3T3-E1 cells; assay: Co-culture of osteoclasts and osteoblasts: osteoclast proliferation and differentiation; type: cell-based, mouse; conditions: 10 μM
Description: 1×10^5 C57BL/6 mouse bone marrow mononuclear cells per well of a 48-well plate were prepared in the same manner as described above, and co-incubated together with 1.5×10^4 MC3T3-E1 murine osteoblasts, using 500 μL of α-MEM containing 10% FBS and 1% antibiotic (100 U/mL penicillin G and […] streptomycin) in the conditions of 37° C. and 5% CO2 while the medium was exchanged every three days.
Positive control cells were co-incubated together with osteoclast differentiation factors M-CSF (60 ng/mL) and RANKL (150 ng/mL), and osteoblast differentiation factors ascorbic acid (50 μg/mL) and 10 mM R-glycerophosphate.
Negative control cells were incubated by adding only M-CSF as a differentiation factor. In order to examine effects of osmundacetone on the differentiation of osteoclasts and osteoblasts, osmundacetone were administered at a final concentration of 10 μM into the positive control cells on day 1 after the cells were dispensed on the plate.
In order to investigate whether or not osmundacetone has ability to inhibit osteoclast differentiation and activate osteoblast differentiation simultaneously, bone marrow mononuclear cells collected from C57BL/6 mice and MC3T3-E1 cells as osteoblast precursor cells were co-incubated in a 48-well plate at cell concentrations of 1×10^5 bone marrow cells and 3×10^3 MC3T3-E1 cells per well. […]

[5] = test system: A549 human lung carcinoma; assay: MTT assay cytotoxicity; type: cell-based; conditions: cancer cell
Description: (§6) AGS human stomach adenocarcinoma cells (# KCLB 21739), A549 human lung carcinoma cells (# KCLB 10185), Caki-1 human kidney carcinoma cells (# KCLB 30046), T24 human bladder carcinoma cells (# KCLB 30004), TC-1 P3 HPV-16E7-expressing mouse pulmonary epithelial cells, MHC class I (provided by Tae-Woo Kim, a professor of Korea University) were incubated using RPMI (Rosewell Park Memorial Institute) 1640 (# RPMI-A, Capricorn Scientific, Ebsdorfergrund, Germany) in the conditions of 37° C. and 5% CO2.
as §2, §3
as §4, with “experiments. […]” for “experiments.”

[6] = test system: AGS human stomach adenocarcinoma; assay: MTT assay cytotoxicity; type: cell-based; conditions: 24 hours
Description: as §6, §2, §3
as §4, with “experiments. […]” for “experiments.”

[7] = MTT assay cytotoxicity, cancer cell lines (summary); type: cell-based; conditions: human cancer cell lines (AGS, PC3) compared with human normal cell lines (HaCaT, ADMSC); read-out: cancer selectivity index in cell cytotoxicity
Description: as §3
as §4, with “equation.” for “equation. The reproducibility thereof was validated by three experiments.”
as §5

cancer cell lines = assay: as above; type: cell-based; conditions: summary range
Description: as §3
as §4, with “equation.” for “equation. The reproducibility thereof was validated by three experiments.”
as §5

[8] = test system: NIH3T3 mouse embryo fibroblasts; assay: MTT assay cytotoxicity; type: cell-based; conditions: NIH3T3, 24 hours, read-out: IC50 according to MTT assay
Description: as §1, §2, §3
as §4, with “Thereafter, the medium was removed from each well, and 100 μL of DMSO was added.” left out, “The reproducibility thereof was validated by three experiments.” left out

B16F10 mouse melanoma = assay: MTT assay cytotoxicity; type: cell-based; conditions: B16F10, 24 hours
Description: as §1, §2, §3
as §4, with “Thereafter, the medium was removed from each well, and 100 μL of DMSO was added.” left out, “The reproducibility thereof was validated by three experiments.” left out

[9] = US toxic substance regulatory agencies, Not Listed; cited from earlier work

CC(=O)/C=C/c1ccc(O)c(O)c1 [Osmundacetone, (3E)-4-(3,4-dihydroxyphenyl)-3-buten-2-one]
LD50 (MTT assay) [1]: 507 ± 98 µM
IC50 [2]: 3.51 ± 0.11 mM
LD50 (MTT assay) [3]: 65.5 ± 8.7 µM
proliferation and differentiation of osteoclasts in co-incubation [4]: completely inhibited
mature osteoclasts in co-incubation ([4]; day 6 after administration): completely disappeared
LD50 (μM) Based on MIT Assay [5]: >5,000 μM
LD50 (MTT assay) [6]: 59.9 ± 6.1 µM
selectivity ratio at 24 h [7]: 45 to 60
LD50 for several cancer cell lines (cancer cell lines): 50 to 70 µM
IC50 [8]: > 5 mM
LD50 (MTT assay) (B16F10 mouse melanoma): 75.8 ± 9.2 µM
tests of human toxicity, irritation, carcinogenicity, environmental toxicity [9]: harmless and safe

Source: patent US20200129450A1, “COMPOSITION COMPRISING OSMUNDACETONE OR PHARMACEUTICALLY ACCEPTABLE SALT THEREOF FOR PREVENTING OR TREATING BONE DISEASE” (KORPHARM CO., LTD., priority 2016, published 2020)
